From PubChem BioAssay (NCI)
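Cultured in 96-well plates, cells were exposed to test compound for 48 hours across five concentrations. TGI: concentration producing complete growth inhibition.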

Tests used:
Test in all cases: DTP human tumour cell line panel, 48 h
[1] = test system: UACC-257 melanoma
[2] = test system: SF-268 CNS
[3] = test system: LOX IMVI melanoma
[4] = test system: SK-MEL-2 melanoma
[5] = test system: U251 CNS
[6] = test system: HCT-15 colon
[7] = test system: HCT-116 colon
[8] = test system: CAKI-1 renal
[9] = test system: SK-MEL-5 melanoma
[10] = test system: A549 NSCLC
[11] = test system: OVCAR-5 ovarian
[12] = test system: ACHN renal
[13] = test system: IGROV1 ovarian
[14] = test system: SW-620 colon
[15] = test system: OVCAR-3 ovarian
[16] = test system: CCRF-CEM leukemia
[17] = test system: SF-539 CNS
[18] = test system: NCI-H226 lung
[19] = test system: NCI-H460 lung
[20] = test system: MDA-MB-435
[21] = test system: DU-145 prostate
[22] = test system: K-562 leukemia
[23] = test system: OVCAR-4 ovarian
[24] = test system: T-47D breast
[25] = test system: TK-10 renal
[26] = test system: PC-3 prostate
[27] = test system: SK-MEL-28 melanoma
[28] = test system: SN12C renal
[29] = test system: HCC-2998 colon
[30] = test system: NCI-H522 lung
[31] = test system: SF-295 CNS
[32] = test system: UACC-62 melanoma
[33] = test system: RXF 393 renal
[34] = test system: HL-60(TB) leukemia
[35] = test system: SNB-19 CNS
[36] = test system: NCI-H23 lung
[37] = test system: COLO 205 colon
[38] = test system: MCF7 breast
[39] = test system: SNB-75 CNS
[40] = test system: OVCAR-8 ovarian
[41] = test system: UO-31 renal
[42] = test system: HS 578T breast
[43] = test system: HT29 colon
[44] = test system: BT-549 breast
[45] = test system: KM12 colon
[46] = test system: M14 melanoma
[47] = test system: A498 renal
[48] = test system: MOLT-4 leukemia
[49] = test system: MALME-3M melanoma
[50] = test system: HOP-62 NSCLC
[51] = test system: SK-OV-3 ovarian
[52] = test system: HOP-92 NSCLC
[53] = test system: MDA-N
[54] = test system: MDA-MB-231 breast
[55] = test system: 786-0 renal
[56] = test system: RPMI-8226 leukemia
[57] = test system: EKVX NSCLC
[58] = test system: NCI/ADR-RES ovarian
[59] = test system: SR leukemia

CC(=O)Nc1nc(C#N)[nH]c1C#N
TGI [1]: > 100 µM | TGI [2]: > 100 µM | TGI [3]: > 100 µM | TGI [4]: > 100 µM | TGI [5]: > 100 µM | TGI [6]: > 100 µM | TGI [7]: > 100 µM | TGI [8]: > 100 µM | TGI [9]: > 100 µM | TGI [10]: > 100 µM | TGI [11]: > 100 µM | TGI [12]: > 100 µM | TGI [13]: > 100 µM | TGI [14]: > 100 µM | TGI [15]: > 100 µM | TGI [16]: > 100 µM | TGI [17]: > 100 µM | TGI [18]: > 100 µM | TGI [19]: > 100 µM | TGI [20]: > 100 µM | TGI [21]: > 100 µM | TGI [22]: > 100 µM | TGI [23]: > 100 µM | TGI [24]: > 100 µM | TGI [25]: > 100 µM | TGI [26]: > 100 µM | TGI [27]: > 100 µM | TGI [28]: > 100 µM | TGI [29]: > 100 µM | TGI [30]: > 100 µM | TGI [31]: > 100 µM | TGI [32]: > 100 µM | TGI [33]: > 100 µM | TGI [34]: > 100 µM | TGI [35]: > 100 µM | TGI [36]: > 100 µM | TGI [37]: > 100 µM | TGI [38]: > 100 µM | TGI [39]: > 100 µM | TGI [40]: > 100 µM | TGI [41]: > 100 µM | TGI [42]: > 100 µM | TGI [43]: > 100 µM | TGI [44]: > 100 µM | TGI [45]: > 100 µM | TGI [46]: > 100 µM | TGI [47]: > 100 µM | TGI [48]: > 100 µM | TGI [49]: > 100 µM | TGI [50]: > 100 µM | TGI [51]: > 100 µM | TGI [52]: > 100 µM | TGI [53]: > 100 µM | TGI [54]: > 100 µM | TGI [55]: > 100 µM | TGI [56]: > 100 µM | TGI [57]: > 100 µM | TGI [58]: > 100 µM

CCN(CCCN(CC)C(=O)Nc1c(C)cccc1C)C(=O)Nc1c(C)cccc1C
TGI [1]: > 100 µM | TGI [2]: > 100 µM | TGI [3]: > 100 µM | TGI [4]: > 100 µM | TGI [5]: > 100 µM | TGI [6]: > 100 µM | TGI [7]: > 100 µM | TGI [8]: > 100 µM | TGI [9]: > 100 µM | TGI [10]: > 100 µM | TGI [11]: > 100 µM | TGI [12]: > 100 µM | TGI [13]: > 100 µM | TGI [14]: > 100 µM | TGI [18]: > 100 µM | TGI [19]: > 100 µM | TGI [20]: > 100 µM | TGI [21]: > 100 µM | TGI [22]: > 100 µM | TGI [23]: > 100 µM | TGI [24]: > 100 µM | TGI [25]: > 100 µM | TGI [26]: > 100 µM | TGI [27]: > 100 µM | TGI [28]: > 100 µM | TGI [29]: > 100 µM | TGI [30]: > 100 µM | TGI [31]: > 100 µM | TGI [32]: > 100 µM | TGI [33]: > 100 µM | TGI [35]: > 100 µM | TGI [36]: > 100 µM | TGI [37]: > 100 µM | TGI [38]: > 100 µM | TGI [39]: > 100 µM | TGI [40]: > 100 µM | TGI [41]: > 100 µM | TGI [42]: > 100 µM | TGI [43]: > 100 µM | TGI [44]: > 100 µM | TGI [45]: > 100 µM | TGI [46]: > 100 µM | TGI [47]: > 100 µM | TGI [48]: > 100 µM | TGI [49]: > 100 µM | TGI [50]: > 100 µM | TGI [51]: > 100 µM | TGI [52]: > 100 µM | TGI [53]: > 100 µM | TGI [54]: > 100 µM | TGI [55]: > 100 µM | TGI [56]: > 100 µM | TGI [57]: > 100 µM | TGI [58]: > 100 µM

COc1ccc2c(c1)OCC1Cc3ccccc3OC21 (stereo not given)
TGI [1]: > 100 µM | TGI [2]: > 100 µM | TGI [3]: > 100 µM | TGI [4]: > 100 µM | TGI [5]: > 10 µM | TGI [6]: > 100 µM | TGI [7]: > 100 µM | TGI [8]: > 100 µM | TGI [9]: > 10 µM | TGI [10]: > 100 µM | TGI [11]: > 100 µM | TGI [12]: > 100 µM | TGI [13]: > 100 µM | TGI [14]: > 100 µM | TGI [15]: > 100 µM | TGI [16]: > 100 µM | TGI [17]: > 100 µM | TGI [18]: > 100 µM | TGI [20]: > 100 µM | TGI [21]: > 100 µM | TGI [22]: > 100 µM | TGI [24]: > 100 µM | TGI [25]: > 100 µM | TGI [26]: > 100 µM | TGI [28]: > 100 µM | TGI [29]: > 100 µM | TGI [59]: > 100 µM | TGI [30]: > 100 µM | TGI [31]: > 100 µM | TGI [32]: > 100 µM | TGI [34]: > 100 µM | TGI [36]: > 100 µM | TGI [37]: > 100 µM | TGI [38]: > 100 µM | TGI [39]: > 100 µM | TGI [40]: > 100 µM | TGI [41]: > 100 µM | TGI [43]: > 100 µM | TGI [44]: > 100 µM | TGI [45]: > 100 µM | TGI [46]: > 100 µM | TGI [47]: > 10 µM | TGI [48]: > 100 µM | TGI [49]: > 100 µM | TGI [50]: > 100 µM | TGI [51]: > 100 µM | TGI [52]: > 100 µM | TGI [53]: > 10 µM | TGI [54]: > 100 µM | TGI [55]: > 100 µM | TGI [56]: > 100 µM | TGI [57]: > 100 µM | TGI [58]: > 100 µM
